Data from patent US20260159512A1, “BCAT2 INHIBITORS” (AGIOS PHARMACEUTICALS, INC., priority 2021, published 2026).
“And” between values parts separate entries of the source, which are not always exact repeats. Equal entries are not always repeated.

Legend:
Details in all cases: average where tested multiple times
BCAT2 [1] = biological target: T1, BCAT2 (Homo sapiens, UniProt O15382); assay: BCAT2 in vitro cell inhibition using engineered A549 cells (KMV cell assay, 13C6-KMV by LC-MS/MS); format: cell-based; parameters: The result was an engineered A549 cell line that expressed endogenous BCAT2; endogenous in cells; host or cells: A549 cells with MUT and BCAT1 knocked out by CRISPR/CAS9
T1 sequence (O15382 28-392): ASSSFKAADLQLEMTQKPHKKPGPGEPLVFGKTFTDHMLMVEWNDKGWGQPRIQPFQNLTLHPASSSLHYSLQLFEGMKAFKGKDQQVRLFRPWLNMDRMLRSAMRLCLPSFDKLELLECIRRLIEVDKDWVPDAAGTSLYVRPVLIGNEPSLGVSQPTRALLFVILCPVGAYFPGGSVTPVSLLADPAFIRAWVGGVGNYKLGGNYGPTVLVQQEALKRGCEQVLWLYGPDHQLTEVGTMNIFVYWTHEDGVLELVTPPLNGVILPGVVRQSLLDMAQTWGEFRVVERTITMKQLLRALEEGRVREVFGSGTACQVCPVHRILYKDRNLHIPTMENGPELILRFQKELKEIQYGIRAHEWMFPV

BCAT2 [2] = biological target: T1, BCAT2; assay: BCAT2 in vitro enzyme inhibition assay (resazurin/diaphorase-coupled fluorescence); format: biochemical
In short: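 Coupled fluorescence readout: glutamate formed from L-leucine/α-ketoglutarate transamination drives GDH/NAD/diaphorase reduction of resazurin (Ex 540/Em 590). Human BCAT2 was first exposed 1 h at room temperature to compound, top final 100 μM in 3-fold, 10-point series; substrate reaction ran 1 h before SDS quench, in technical duplicate with DMSO max and enzyme-free min controls.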

hBCAT1 = biological target: T2, hBCAT1 (Homo sapiens, UniProt P54687); assay: BCAT1 in vitro enzyme inhibition assay (resazurin/diaphorase-coupled fluorescence); format: biochemical
T2 sequence (P54687 1-386): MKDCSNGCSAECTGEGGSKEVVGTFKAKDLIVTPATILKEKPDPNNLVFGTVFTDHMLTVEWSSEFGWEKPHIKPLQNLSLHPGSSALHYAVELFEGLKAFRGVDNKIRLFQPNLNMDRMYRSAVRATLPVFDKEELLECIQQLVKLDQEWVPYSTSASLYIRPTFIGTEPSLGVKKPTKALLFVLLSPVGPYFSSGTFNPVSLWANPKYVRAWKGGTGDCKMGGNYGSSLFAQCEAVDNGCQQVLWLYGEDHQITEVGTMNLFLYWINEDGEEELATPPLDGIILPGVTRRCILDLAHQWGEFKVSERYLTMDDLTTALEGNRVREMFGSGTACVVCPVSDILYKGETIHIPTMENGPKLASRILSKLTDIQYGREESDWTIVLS
In short: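 Ten-point, 3-fold compound series (top final 100 μM, delivered 1:50 from 50× DMSO stocks) tested against hBCAT1. Inhibition detected via diaphorase-coupled resazurin fluorescence, duplicate wells, with values from repeated runs averaged.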

Structure (SMILES) | IC50 (BCAT2 [1]) | IC50 (BCAT2 [2]) [nM] | IC50 (hBCAT1) [nM]
O=C(N[C@H]1CCC[C@@H](n2c(-n3nccn3)nc3cnc(-n4nccn4)cc32)C1)c1ncc(C(F)F)s1 [Example 67, N-((1S,3R)-3-(2,6-di(2H-1,2,3-triazol-2-yl)-1H-imidazo[4,5-c]pyridin-1-yl)cyclohexyl)-5-(difluoromethyl)thiazole-2-carboxamide] | > 1000 nM | 100 to 500 | > 5000
O=C(N[C@H]1CCC[C@@H](n2c(Nc3ccccn3)nc3cnc(-n4nccn4)cc32)C1)c1ncc(C(F)F)s1 [Example 69, 5-(difluoromethyl)-N-((1S,3R)-3-(2-(pyridin-2-ylamino)-6-(2H-1,2,3-triazol-2-yl)-1H-imidazo[4,5-c]pyridin-1-yl)cyclohexyl)thiazole-2-carboxamide] | > 1000 nM | 100 to 500 | > 5000
O=C(N[C@H]1CCC[C@@H](n2c(-c3ncccc3F)nc3cnc(-n4nccn4)cc32)C1)c1ccc(Cl)s1 [Example 76, 5-chloro-N-((1S,3R)-3-(2-(3-fluoropyridin-2-yl)-6-(2H-1,2,3-triazol-2-yl)-1H-imidazo[4,5-c]pyridin-1-yl)cyclohexyl)thiophene-2-carboxamide] | ≤ 100 nM | ≤ 100 | < 500
O=C(N[C@H]1CCC[C@@H](n2c(-c3ccccc3F)nc3cnc(-c4ccn[nH]4)cc32)C1)c1ncc(C(F)F)s1 [Example 77, 5-(difluoromethyl)-N-((1S,3R)-3-(2-(2-fluorophenyl)-6-(1H-pyrazol-5-yl)-1H-imidazo[4,5-c]pyridin-1-yl)cyclohexyl)thiazole-2-carboxamide] | ≤ 100 nM | ≤ 100 | < 500
O=C(N[C@H]1CCC[C@@H](n2c(-c3ncccc3F)nc3cnc(-c4ccn[nH]4)cc32)C1)c1ccc(Cl)s1 [Example 78, 5-chloro-N-((1S,3R)-3-(2-(3-fluoropyridin-2-yl)-6-(1H-pyrazol-5-yl)-1H-imidazo[4,5-c]pyridin-1-yl)cyclohexyl)thiophene-2-carboxamide] | ≤ 100 nM | ≤ 100 | < 500
CC(C)Oc1nc2cnc(-n3nccn3)cc2n1[C@@H]1CCC[C@H](NC(=O)c2ncc(C(F)F)s2)C1 [Example 79, 5-(difluoromethyl)-N-((1S,3R)-3-(2-isopropoxy-6-(2H-1,2,3-triazol-2-yl)-1H-imidazo[4,5-c]pyridin-1-yl)cyclohexyl)thiazole-2-carboxamide] | > 1000 nM | 100 to 500 | > 5000
O=C(N[C@H]1CCC[C@@H](n2c(-c3ncccc3F)nc3cnc(-c4nc[nH]n4)cc32)C1)c1ccc(Cl)s1 [Example 80, 5-chloro-N-((1S,3R)-3-(2-(3-fluoropyridin-2-yl)-6-(1H-1,2,4-triazol-3-yl)-1H-imidazo[4,5-c]pyridin-1-yl)cyclohexyl)thiophene-2-carboxamide] | ≤ 100 nM | ≤ 100 | < 500
O=C(N[C@H]1CCC[C@@H](n2c(-c3ccccc3F)nc3cnc(-c4cn[nH]c4)cc32)C1)c1ncc(Cl)s1 [Example 81, 5-chloro-N-((1S,3R)-3-(2-(2-fluorophenyl)-6-(1H-pyrazol-4-yl)-1H-imidazo[4,5-c]pyridin-1-yl)cyclohexyl)thiazole-2-carboxamide] | 100 to 500 nM | ≤ 100 | < 500
O=C(N[C@H]1CCC[C@@H](n2c(-c3ccccc3F)nc3cnc(-c4nn[nH]n4)cc32)C1)c1ccc(Cl)s1 [Example 82, 5-chloro-N-((1S,3R)-3-(2-(2-fluorophenyl)-6-(2H-tetrazol-5-yl)-1H-imidazo[4,5-c]pyridin-1-yl)cyclohexyl)thiophene-2-carboxamide] | 500 to 1000 nM | ≤ 100 | < 500

Results, then the compound that gave them:

IC50 (BCAT2 [1]) | IC50 (BCAT2 [2]) [nM] | IC50 (hBCAT1) [nM] | Structure (SMILES)
100 to 500 nM | ≤ 100 | > 5000 | O=C(N[C@H]1CCC[C@@H](n2c(Oc3ccccc3)nc3cnc(-n4nccn4)cc32)C1)c1ccc(Br)s1 [Example 63, 5-bromo-N-((1S,3R)-3-(2-phenoxy-6-(2H-1,2,3-triazol-2-yl)-1H-imidazo[4,5-c]pyridin-1-yl)cyclohexyl)thiophene-2-carboxamide]
100 to 500 nM and 500 to 1000 nM | ≤ 100 | 1000 to 5000 | COC(=O)c1cnn(-c2cc3c(cn2)nc(-c2ccccn2)n3[C@@H]2CCC[C@H](NC(=O)c3ncc(C(F)F)s3)C2)n1 [Example 64, methyl 2-(1-((1R,3S)-3-(5-(difluoromethyl)thiazole-2-carboxamido)cyclohexyl)-2-(pyridin-2-yl)-1H-imidazo[4,5-c]pyridin-6-yl)-2H-1,2,3-triazole-4-carboxylate]
≤ 100 nM | ≤ 100 | 500 to 1000 | O=C(N[C@H]1CCC[C@@H](n2c(-c3ncccc3F)nc3cnc(-n4nccn4)cc32)C1)c1ncc(C(F)(F)F)s1 [Example 65, N-((1S,3R)-3-(2-(3-fluoropyridin-2-yl)-6-(2H-1,2,3-triazol-2-yl)-1H-imidazo[4,5-c]pyridin-1-yl)cyclohexyl)-5-(trifluoromethyl)thiazole-2-carboxamide]
≤ 100 nM | ≤ 100 | < 500 | N#Cc1cnc(C(=O)N[C@H]2CCC[C@@H](n3c(-c4ncccc4F)nc4cnc(-n5nccn5)cc43)C2)s1 [Example 66, 5-cyano-N-((1S,3R)-3-(2-(3-fluoropyridin-2-yl)-6-(2H-1,2,3-triazol-2-yl)-1H-imidazo[4,5-c]pyridin-1-yl)cyclohexyl)thiazole-2-carboxamide]
≤ 100 nM | ≤ 100 | < 500 | O=C(N[C@H]1CCC[C@@H](n2c(-c3ccccc3F)nc3cnc(-c4nc[nH]n4)cc32)C1)c1ncc(C(F)F)s1 [Example 68, 5-(difluoromethyl)-N-[(1S,3R)-3-[2-(2-fluorophenyl)-6-(1H-1,2,4-triazol-3-yl)imidazo[4,5-c]pyridin-1-yl]cyclohexyl]thiazole-2-carboxamide]
≤ 100 nM | ≤ 100 | < 500 | O=C(N[C@H]1CCC[C@@H](n2c(-c3ccccc3F)nc3cnc(-n4nccn4)cc32)C1)c1ncc(Cl)s1 [Example 71, 5-chloro-N-((1S,3R)-3-(2-(2-fluorophenyl)-6-(2H-1,2,3-triazol-2-yl)-1H-imidazo[4,5-c]pyridin-1-yl)cyclohexyl)thiazole-2-carboxamide]
≤ 100 nM | ≤ 100 | < 500 | O=C(N[C@H]1CCC[C@@H](n2c(-c3ccccc3F)nc3cnc(-n4nccn4)cc32)C1)c1ccc(Cl)s1 [Example 72, 5-chloro-N-((1S,3R)-3-(2-(2-fluorophenyl)-6-(2H-1,2,3-triazol-2-yl)-1H-imidazo[4,5-c]pyridin-1-yl)cyclohexyl)thiophene-2-carboxamide]
> 1000 nM | ≤ 100 | > 5000 | O=C(N[C@H]1CCC[C@@H](n2c(Nc3ccccc3)nc3cnc(-n4nccn4)cc32)C1)c1ncc(C(F)F)s1 [Example 73, 5-(difluoromethyl)-N-((1S,3R)-3-(2-(phenylamino)-6-(2H-1,2,3-triazol-2-yl)-1H-imidazo[4,5-c]pyridin-1-yl)cyclohexyl)thiazole-2-carboxamide]
≤ 100 nM | ≤ 100 | < 500 | CC(C)Cc1nc2cnc(-n3nccn3)cc2n1[C@@H]1CCC[C@H](NC(=O)c2ccc(Cl)s2)C1 [Example 74, 5-chloro-N-((1S,3R)-3-(2-isobutyl-6-(2H-1,2,3-triazol-2-yl)-1H-imidazo[4,5-c]pyridin-1-yl)cyclohexyl)thiophene-2-carboxamide]
≤ 100 nM | ≤ 100 | < 500 | O=C(N[C@H]1CCC[C@@H](n2c(-c3ncccc3F)nc3cnc(-c4nc[nH]n4)cc32)C1)c1ncc(C(F)F)s1 [Example 75, 5-(difluoromethyl)-N-((1S,3R)-3-(2-(3-fluoropyridin-2-yl)-6-(1H-1,2,4-triazol-3-yl)-1H-imidazo[4,5-c]pyridin-1-yl)cyclohexyl)thiazole-2-carboxamide]
